# Experimental data reported in patent publication US20060019329A1, “Method of screening for protein inhibitors and activators” (priority 1988, published 2006).
# What was measured:
# [1] = tested on: R6-PKC5 cells; test: Growth in monolayer culture, R6-PKC5; format: cell-based, rat; conditions: R6-PKC5 (test), + TPA 100 ng/ml
# Protocol: (§1) Cells were seeded at a density of 10^4/plate in a series of 60 mm plates, in 5 ml DMEM plus 10% CS. Twenty-four hours later, cells in triplicate plates were trypsinized and counted. This point was designated “day 0.” The remaining cultures were then grown in the respective medium (i.e. plus or minus 100 ng/ml TPA) with fresh medium changes twice per week. Cell counts per plate were then determined on triplicate plates during the remainder of the growth curve (FIG. 3). The results obtained were analyzed for exponential doubling time and saturation density (Table 2). To assess growth in soft agar (anchorage independence), 2×10^4 cells were suspended in 2 ml of 0.3% Bacto agar (Difco Laboratories, Detroit, Mich.) in DMEM containing 20% fetal calf serum (FCS) and overlayed above a layer of 5 ml of 0.5% agar in the same medium, on 60 mm petri dishes. […] At the end of 30 days, colonies were stained with the vital stain 2-(p-iodophenyl)-3-(p-nitrophenyl)-5-phenyltetrazolinium chloride hydrate (INT) (Sigma Chemical Co., St. Louis, Mo.) for 48 hours at 37° C., in an incubator with 5% CO2 (Schaeffer and Friend, 1976), and the number of colonies counted under low power on an inverted phase microscope. The data are expressed as “cloning efficiency”, i.e. number of colonies greater than 0.05 mm per plate X 100 divided by the number of cells originally seeded per plate. […]
# [2] = tested on: R6-C1 control cells; test: Morphologic response to phorbol ester treatment, control R6-C1; format: cell-based, rat
# Protocol: (§2) FIG. 4. Morphologic Responses of the Cell Lines to Phorbol Ester Treatment. Nearly confluent cultures of the three indicated cell lines were exposed to 100 ng/ml TPA in 0.1% dimethylsulfoxide (DMSO) solvent (“+TPA”) or 0.1% DMSO alone (“−TPA”), in DMEM plus 10% CS. Photographs were taken 24 hours later (Panels A and D) and 48 hours later (Panels B and E). Fresh medium plus or minus TPA was then added and photographs were then taken an additional 24 hours later (Panels C and F). (Magnification: 100×).
# (§3) All of the cell lines were then exposed to a second, fresh dose of TPA (100 ng/ml) and examined 24 hours later (FIG. 4, Panel F), i.e., 72 hours after the first dose of TPA.
# [3] = tested on: R6-PKC3 cells (Rat 6 fibroblasts overproducing PKCbeta1); test: Growth in soft agar (anchorage independence), R6-PKC3; format: cell-based
# Protocol: (§4) Cells were seeded at a density of 10^4/plate in a series of 60 mm plates, in 5 ml DMEM plus 10% CS. Twenty-four hours later, cells in triplicate plates were trypsinized and counted. This point was designated “day 0.” The remaining cultures were then grown in the respective medium (i.e. plus or minus 100 ng/ml TPA) with fresh medium changes twice per week. Cell counts per plate were then determined on triplicate plates during the remainder of the growth curve (FIG. 3). The results obtained were analyzed for exponential doubling time and saturation density (Table 2). To assess growth in soft agar (anchorage independence), 2×10^4 cells were suspended in 2 ml of 0.3% Bacto agar (Difco Laboratories, Detroit, Mich.) in DMEM containing 20% fetal calf serum (FCS) and overlayed above a layer of 5 ml of 0.5% agar in the same medium, on 60 mm petri dishes. The cells were then overlaid with DMEM plus 20% FCS every 4 days. At the end of 30 days, colonies were stained with the vital stain 2-(p-iodophenyl)-3-(p-nitrophenyl)-5-phenyltetrazolinium chloride hydrate (INT) (Sigma Chemical Co., St. Louis, Mo.) for 48 hours at 37° C., in an incubator with 5% CO2 (Schaeffer and Friend, 1976), and the number of colonies counted under low power on an inverted phase microscope. The data are expressed as “cloning efficiency”, i.e. number of colonies greater than 0.05 mm per plate X 100 divided by the number of cells originally seeded per plate.
# (§5) I also assayed these cell lines for their ability to form colonies in soft agar, since with rodent cells the acquisition of anchorage-independent growth often correlates with tumorigenicity (Freedman and Shin, 1974).
# [4] = tested on: R6-PKC3 cells; test: Morphologic response to phorbol ester treatment, R6-PKC3; format: cell-based, rat
# Protocol: as §2, §3
# [5] = tested on: R6-PKC5 cells; test: Morphologic response to phorbol ester treatment, R6-PKC5; format: cell-based, rat
# Protocol: as §2, §3
# [6] = tested on: R6-PKC3 cells; test: Growth in monolayer culture, R6-PKC3; format: cell-based, rat
# Protocol: as §4
# It was also of interest to determine the growth rates of these cells in monolayer culture. Detailed growth curves were performed on R6-C1, R6-PKC3 and R6-PKC5 cells in 10% calf serum and DMEM medium, in the absence and presence of 100 ng/ml TPA.
# [7] = tested on: R6-C1 control cells; test: Growth in monolayer culture, control R6-C1; format: cell-based, rat; conditions: R6C1 (control), + TPA 100 ng/ml
# Protocol: as §1
# [8] = tested on: FDC-P1 cells overproducing PKC beta1; test: Morphologic response of FDC-P1 cells overproducing PKCbeta1 to PKC activators; format: cell-based; conditions: 100 nM TPA, after 12 hours
# Protocol: Several cell lines were plated at 3×10E4 cells/ml and treated with 100 nM TPA. After 12 hours, representative fields were photographed. […] The latter clumps are easily visualized with standard cell stains such as Giemsa, and stain much darker than the corresponding control cells under these conditions.
# [9] = tested on: R6-C1 control cells (Rat 6 fibroblasts with pMV7 alone); test: Growth in soft agar (anchorage independence), control R6-C1; format: cell-based
# Protocol: as §1
# [10] = tested on: R6-PKC5 cells (Rat 6 fibroblasts overproducing PKCbeta1); test: Growth in soft agar (anchorage independence), R6-PKC5; format: cell-based
# Protocol: as §4, §5
# [11] = tested on: PKC; conditions: cell-free assay (O'Brian, et al, Cancer Res., 1985); cited from earlier work
# [12] = tested on: cell lines overproducing PKC; test: Growth in agar of cell lines overproducing PKC (further screening of activators and inhibitors); format: cell-based, rat
# Protocol: as §4
# Additional compounds tested included the tumor promoters teleocidin, aplysiatoxin, and mezerein, all of which are known activators of PKC (O'Brian, et al., CSH, 1985).
# Inhibition of the growth of the R6-PKC3 cells in agar in the presence of tamoxifen provided critical evidence that tamoxifen could inhibit PKC-mediated stimulation of cellular growth.
# [13] = biological target: high affinity phorbol-ester binding sites (PKC); conditions: read-out: affinity constant (Kd) of phorbol ester binding; control cell line R6-C1; intact cells; Scatchard; approximately the same in both cell lines
# Protocol: Cells were plated at 1×10^5 per 4 cm well on day 1, the medium was changed on day 2 and the cells then assayed on day 3. […] The plates were washed 3× with 4 ml ice-cold PBS. The cells were solubilized in 1 ml 1% SDS/10 mM DTT for 2 hrs at 37° C. The lysate was transferred to a scintillation vial and counted.
# [14] = initial exponential phase, DMEM plus 10% CS
# [15] = 24 hours after second 100 ng/ml dose (72 hours after first)
# [16] = R6-PKC3 (test), + TPA 100 ng/ml, 0.3% agar
# [17] = R6-PKC5 (test), + TPA 100 ng/ml, 0.3% agar
smiles,measurement,setting,value
"CCCCCCCCCCCCCC(=O)O[C@@H]1[C@@H](C)[C@@]2(O)[C@@H](C=C(CO)C[C@]3(O)C(=O)C(C)=C[C@@H]23)[C@@H]2C(C)(C)[C@]12OC(C)=O [TPA, 12-O-tetradecanoylphorbol-13-acetate]",Monolayer Saturat. Density,[1]; cells per 6 cm plate on day 11,7.0 × 10^6
same,Monolayer Doubling Time,[1]; [14],22.9 h
same,morphology after TPA,[2]; 24 hours after 100 ng/ml TPA,more elongated and dendritic cells and a criss-cross pattern
same,morphologic response to second dose of TPA,[2]; [15],failed to respond
same,morphology after TPA,[2]; 48 hours after 100 ng/ml TPA,returned to its normal appearance
same,Agar Colony Size,[3]; [16],0.15-0.35 mm
same,Agar Effic.,[3]; [16],29.7%
same,colony sizes and cloning efficiencies in agar,"[3]; R6-PKC3, TPA 100 ng/ml in agar medium",enhanced
same,morphology after TPA,[4]; 24 hours after 100 ng/ml TPA,very long cytoplasmic processes and numerous refractile cell bodies
same,morphologic response to second dose of TPA,[4]; [15],continued to display their altered morphology as well as an increase in cell density
same,morphology after TPA,[4]; 48 hours after 100 ng/ml TPA,continued to display an altered morphology
same,morphologic changes after TPA compared with control,[5]; 24 hours after 100 ng/ml TPA,much more dramatic
same,morphologic response to second dose of TPA,[5]; [15],only slight changes in morphology
same,morphology after TPA,"[5]; 48 hours after 100 ng/ml TPA, to a lesser extent than R6-PKC3",continued to display an altered morphology
same,Monolayer Saturat. Density,"[6]; R6-PKC3 (test), + TPA 100 ng/ml, cells per 6 cm plate on day 11",10.0 × 10^6
same,Monolayer Doubling Time,"[6]; R6-PKC3 (test), + TPA 100 ng/ml, initial exponential phase, DMEM plus 10% CS",21.5 h
same,cell density when maintained in TPA for a longer period,"[6]; R6-PKC3, monolayer, longer period in presence of TPA, cells detach from plate",showed a decline in cell density
same,Monolayer Saturat. Density,[7]; cells per 6 cm plate on day 11,4.2 × 10^6
same,Monolayer Doubling Time,[7]; [14],24.6 h
same,morphologic changes,[8],profound morphologic changes
same,growth in agar,"[9]; R6-C1, TPA 100 ng/ml in agar medium",still failed to grow in agar
same,Agar Effic.,"[9]; R6C1 (control), + TPA 100 ng/ml, 0.3% agar",0%
same,Agar Colony Size,[10]; [17],0.10-0.15 mm
same,Agar Effic.,[10]; [17],34.7%
same,colony sizes and cloning efficiencies in agar,"[10]; R6-PKC5, TPA 100 ng/ml in agar medium",enhanced
"CC/C(=C(\c1ccccc1)c1ccc(OCCN(C)C)cc1)c1ccccc1 [Tamoxifen, tamoxifen]",effect on PKC enzyme activity,[11],inhibits PKC enzyme activity
same,Effic. of Growth In Agar (%),"[3]; R6-PKC3, inhibitor 5 μM",27%
same,Effic. of Growth In Agar (%),"[3]; R6-PKC3, inhibitor 20 μM",22%
same,Effic. of Growth In Agar (%),"[3]; R6-PKC3, inhibitor 50 μM",15%
same,Effic. of Growth In Agar (%),"[3]; R6-PKC3, inhibitor 100 μM",6%
same,Effic. of Growth In Agar (%),"[3]; R6-PKC3, inhibitor 200 μM",0%
same,inhibition of growth in agar,[12]; all of the cell lines overproducing PKC,completely inhibiting the growth in agar
same,Effic. of Growth In Agar (%),"[10]; R6-PKC5, inhibitor 5 μM",19%
same,Effic. of Growth In Agar (%),"[10]; R6-PKC5, inhibitor 20 μM",17%
same,Effic. of Growth In Agar (%),"[10]; R6-PKC5, inhibitor 50 μM",8%
same,Effic. of Growth In Agar (%),"[10]; R6-PKC5, inhibitor 100 μM",0%
same,Effic. of Growth In Agar (%),"[10]; R6-PKC5, inhibitor 200 μM",0%
"CC1CNCCN1S(=O)(=O)c1cccc2cnccc12 (stereo not shown) [H-7, 1-(5-Isoquinolinesulfonyl)-2-methyl-piperazine]",Effic. of Growth In Agar (%),"[3]; R6-PKC3, inhibitor 2 μM",25%
same,Effic. of Growth In Agar (%),"[3]; R6-PKC3, inhibitor 5 μM",22%
same,Effic. of Growth In Agar (%),"[3]; R6-PKC3, inhibitor 10 μM",17%
same,Effic. of Growth In Agar (%),"[3]; R6-PKC3, inhibitor 50 μM",4%
same,Effic. of Growth In Agar (%),"[3]; R6-PKC3, inhibitor 100 μM",0%
same,modulation of the growth of the cells,"[12]; PKC-overproducing cell lines, known activators or inhibitor of PKC",modulated the growth of the cells in the expected manner
same,Effic. of Growth In Agar (%),"[10]; R6-PKC5, inhibitor 2 μM",21%
same,Effic. of Growth In Agar (%),"[10]; R6-PKC5, inhibitor 5 μM",16%
same,Effic. of Growth In Agar (%),"[10]; R6-PKC5, inhibitor 10 μM",4%
same,Effic. of Growth In Agar (%),"[10]; R6-PKC5, inhibitor 50 μM",1%
same,Effic. of Growth In Agar (%),"[10]; R6-PKC5, inhibitor 100 μM",0%
CCCC(=O)O[C@@H]1[C@@H](C)[C@@]2(O)[C@@H](C=C(CO)C[C@]3(O)C(=O)C(C)=C[C@@H]23)[C@@H]2C(C)(C)[C@]12OC(=O)CCC [3H-PDBu],Kd,[13],16 nM
